Patent publication US7022736B2, “Enzyme inhibitors” (Istituto Di Ricerche Di Biologia Molecolare P Angeletti SpA, priority 1998, dated 2006)
Read-outs that look alike come from different tables or passages of the source.

Target: T1, HCV RdRp (NS5B RNA-dependent RNA polymerase) (Hepatitis C virus genotype 1b, UniProt P26663)
T1 construct: The HCV NS5B protein is the viral RdRp; made in house; host or cells: insect cells infected with recombinant baculovirus
Experiment: Inhibition of hepatitis C virus RdRp (poly(A)/oligo(U), [3H]UTP incorporation)
Format: biochemical
Experimental: In initial tests, the compounds were tested to see if they were effective as inhibitors of the RNA-dependent RNA polymerase (RdRp) of hepatitis C virus (HCV). The HCV NS5B protein is the viral RdRp; compounds capable of interfering with the activity of this enzyme are thus expected to block viral replication.
Test for Inhibition of Hepatatis C Virus RdRp
WO96/37619 describes the production of recombinant HCV RdRp from insect cells infected with recombinant baculovirus encoding the enzyme. […] The reference describes a polymerisation assay using poly (A) as a template and oligo (U) as a primer. Incorporation of tritiated UTP is quantified by measuring acid-insoluble radioactivity. The present inventors have employed this assay to screen the various compounds described above as inhibitors of HCV RdRp and other virally encoded polymerases.
Incorporation of radioactive UMP was measured as follows. The standard reaction (100 μl) was carried out in a buffer containing 20 mM tris/HCl pH 7.5, 5 mM MgCl2, 1 mM DTT, 50 mM NaCl, 1 mM EDTA, 2 OU Rnasin (Promega), 0.05% Triton X-100, 1 μCi[^3H] UTP (40 Ci/mmol,NEN), 10 μM UTP and 10 μg/ml poly (A). Oligo (U)12 (1 μg/ml, Genset) was added as a primer. The final NSSB enzyme concentration was 20 nM. After 1 hour incubation at 22° C. the reaction was stopped by adding 100 μl of 20% TCA and applying samples to DE81 filters. The filters were washed thoroughly with 5% TCA containing 1M Na2HPO4/NaH2PO4, pH 7.0, rinsed with water and then ethanol, air dried, and the filter-bound radioactivity was measured in the scintillation counter. By carrying out the reaction in the presence of various concentrations of each of the compounds set out above it was possible to determine IC50 values for each compound with the formula: % residual activity=100/(1+[I]/IC50)^s where [I] is the inhibitor concentration and “s” is the slope of the inhibition curve. Test for Inhibition of Hepatitis B Virus Polymerase

[1] = Tables I-VIII, 20 nM NS5B, 1 hour at 22° C., read-out: IC 50 (μM), HCV-polymerase
[2] = Tables IXa-IXc, unit inferred, read-out: HCV (IC50)

T1 sequence (P26663 2420-3010): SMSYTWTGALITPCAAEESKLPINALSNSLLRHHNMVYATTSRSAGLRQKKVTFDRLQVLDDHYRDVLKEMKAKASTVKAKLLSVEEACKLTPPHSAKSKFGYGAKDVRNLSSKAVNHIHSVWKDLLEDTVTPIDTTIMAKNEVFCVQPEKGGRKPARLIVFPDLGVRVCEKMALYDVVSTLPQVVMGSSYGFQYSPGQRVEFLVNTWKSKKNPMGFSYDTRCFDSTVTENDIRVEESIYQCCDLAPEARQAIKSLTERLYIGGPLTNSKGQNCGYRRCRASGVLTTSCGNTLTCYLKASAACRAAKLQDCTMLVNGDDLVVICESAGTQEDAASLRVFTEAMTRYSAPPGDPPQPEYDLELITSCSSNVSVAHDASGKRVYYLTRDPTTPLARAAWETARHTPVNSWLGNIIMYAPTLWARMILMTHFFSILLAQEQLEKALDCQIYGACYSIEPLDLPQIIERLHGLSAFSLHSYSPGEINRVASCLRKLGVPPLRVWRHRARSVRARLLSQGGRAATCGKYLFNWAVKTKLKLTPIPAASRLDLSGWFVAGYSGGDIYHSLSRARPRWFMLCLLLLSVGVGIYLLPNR

Row | SMILES | IC50 [1] [µM] | IC50 [2] [µM]
1 | N#Cc1cccc(COc2ccccc2C(=O)C=C(O)C(=O)O)c1 [Example 26] | 26 | 
2 | O=C(O)C(O)=CC(=O)c1cccc(OC2CCCCC2)c1 [Example 11] | 7.08 | 
3 | O=C(O)C(O)=CC(=O)c1cccc(Cc2cc(Br)cc(Br)c2)c1 [Example 49] | 32 | 32
4 | O=C(O)COc1cccc(C(=O)C=C(O)C(=O)O)c1 [Example 14] | 26 | 
5 | O=C(O)C(O)=CC(=O)c1cccc(OCc2cccc(C(F)(F)F)c2)c1 [Example 93] | 1.9 | 
6 | O=C(Nc1ccccc1)Nc1cccc(C(=O)C=C(O)C(=O)O)c1 [Example 80] | 3 | 3
7 | O=C(O)C(O)=CC(=O)c1cccc(Cc2cccc(Br)c2)c1 [Example 48] | 22 | 
8 | O=C(Nc1cccc(C(=O)C=C(O)C(=O)O)c1)OCc1ccccc1 [Example 81] | 1.4 | 
9 | Cc1c(Cl)cccc1S(=O)(=O)Nc1cccc(C(=O)C=C(O)C(=O)O)c1 [Example 123] | 0.29 | 
10 | CC(C)COc1ccccc1C(=O)C=C(O)C(=O)O [Example 32] | 6.1 | 
11 | O=C(O)C(O)=CC(=O)c1ccccc1SC1CCCCC1 [Example 33] | 18.2 | 
12 | O=C(O)C(O)=CC(=O)c1cccc(OCc2cccc(F)c2)c1 [Example 94] | 5.8 | 
13 | CCOC(=O)c1ccccc1S(=O)(=O)Nc1cccc(C(=O)C=C(O)C(=O)O)c1 [Example 128] | 24 | 
14 | Cc1ccccc1COc1cccc(C(=O)C=C(O)C(=O)O)c1 [Example 91] | 6.2 | 
15 | N#Cc1ccc(C(=O)Nc2cccc(C(=O)C=C(O)C(=O)O)c2)cc1 [Example 68] | 30 | 
16 | N#Cc1cccc(C(=O)Nc2cccc(C(=O)C=C(O)C(=O)O)c2)c1 [Example 70] | 9.2 | 
17 | N#Cc1ccccc1S(=O)(=O)Nc1cccc(C(=O)C=C(O)C(=O)O)c1 [Example 72] | 0.48 | 0.48
18 | CCCCCOc1ccccc1C(=O)C=C(O)C(=O)O [Example 59] | 25.3 | 
19 | O=C(O)C(O)=CC(=O)c1cccc(N(Cc2ccccc2)Cc2ccccc2)c1 [Example 41] | 28.9 | 
20 | O=C(O)C(O)=CC(=O)c1cccc(NS(=O)(=O)c2cc(Cl)ccc2Cl)c1 [Example 88] | 0.7 | 0.7
21 | O=C(O)C(O)=CC(=O)c1cccc(NS(=O)(=O)c2cccc(Cl)c2Cl)c1 [Example 118] | 0.2 | 
22 | O=C(O)C(O)=CC(=O)c1cccc(Cc2ccc(Cl)cc2)c1 [Example 45] | 12.9 | 
23 | N#Cc1ccccc1COc1ccccc1C(=O)C=C(O)C(=O)O [Example 65] | 45 | 
24 | O=C(O)C(O)=CC(=O)c1cccc(NCc2ccccc2)c1 [Example 12] | 16.7 | 
25 | Cc1cccc(C(C)Oc2cccc(C(=O)C=C(O)C(=O)O)c2)c1C#N (stereo not shown) [Example 122] | 2 | 

Now from value to compound:

Row | IC50 [1] [µM] | IC50 [2] [µM] | SMILES
26 | 14 |  | O=C(O)C(O)=CC(=O)C1=CCCCC1 [Example 254]
27 | 11.6 |  | O=C(O)C(O)=CC(=O)c1sccc1Cc1ccc(F)cc1 [Example 208]
28 | 77 |  | O=C(O)C(O)=CC(=O)C(c1ccccc1)c1ccccc1 [Example 244]
29 | 13.4 |  | N#CCCCCn1cccc1C(=O)C=C(O)C(=O)O [Example 174]
30 | 11 |  | O=C(O)C(O)=CC(=O)c1cc(-c2cccnc2)cs1 [Example 197]
31 | 2 | 2 | Cc1ccc(C(=O)C=C(O)C(=O)O)c(C)c1 [Example 165]
32 | 11.8 |  | O=C(O)C(O)=CC(=O)c1ccsc1Cc1cccc(Cl)c1 [Example 232]
33 | 10 |  | O=C(O)C(O)=CC(=O)C1(c2ccccc2)CCN(S(=O)(=O)c2cccc3cccnc23)CC1 [Example 248]
34 | 9.4 |  | O=C(O)C(O)=CC(=O)c1ccsc1Cc1ccc(Cl)cc1 [Example 231]
35 | 9.9 |  | O=C(O)C(O)=CC(=O)c1sccc1Cc1cccc(F)c1 [Example 207]
36 | 4 |  | O=C(O)C(O)=CC(=O)c1ccsc1 [Example 222]
37 | 0.1 | 0.1 | N#Cc1cccc(Cl)c1COc1cc(O)cc(C(=O)C=C(O)C(=O)O)c1 [Example 160]
38 | 0.55 |  | Cc1cc(S(=O)(=O)Nc2cccc(C(=O)C=C(O)C(=O)O)c2)c(Cl)cc1Cl [Example 149]
39 | 23.7 |  | Cc1c[nH]c(C)c1C(=O)C=C(O)C(=O)O [Example 219]
40 | 8.6 |  | O=C(O)C(O)=CC(=O)c1ccsc1Cc1ccccc1F [Example 230]
